Where “and” joins values, the source holds several entries; their conditions need not be identical. Equal values may be shown once. Toxic doses and inconclusive results are not listed. No stated cut-off is given here; in the data, active means T/C of 150% or more; inactive means T/C below 125%. Peptide text beside a SMILES is read from it. * marks the point of attachment. Bn = c1ccc(C*)cc1
System: L1210 leukemia ip in BDF1 mice, survival T/C
Assay: NCI In Vivo Anticancer Drug Screen. Data for tumor model L1210 Leukemia (intraperitoneal) in B6D2F1 (BDF1) mice
Details: endpoint: mean survival time, higher = longer survival
In short: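 Mice bearing the transplanted tumor received compound or vehicle. Survival of the treated group was divided by that of the vehicle-treated control group to give the ratio.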

[1] = dose: 25.0 mg/kg/injection, schedule: Q04DX003 (ip), vehicle: saline
[2] = dose: 50.0 mg/kg/injection, schedule: Q04DX003 (ip), vehicle: saline
[3] = dose: 100.0 mg/kg/injection, schedule: Q04DX003 (ip), vehicle: saline
[4] = dose: 100.0 mg/kg/injection, schedule: Q04DX003 (ip), vehicle: saline with Tween-80
[5] = dose: 100.0 mg/kg/injection, schedule: Q01DX009 (ip), vehicle: saline

Measured: T/C

CCOC(=O)c1cc(Cl)cc(Cl)c1N/N=[N+](\C)[O-]
inactive: dose: 50.0 mg/kg/injection, schedule: Q01DX009 (ip), vehicle: saline with Tween-80 117 % of control | dose: 100.0 mg/kg/injection, schedule: Q01DX009 (ip), vehicle: saline with Tween-80 87 % of control | dose: 200.0 mg/kg/injection, schedule: Q01DX009 (ip), vehicle: saline with Tween-80 93 % of control

Nc1ncnc2[nH]c(=O)[nH]c12
inactive: [1] 105 % of control | [2] 102 % of control | [3] 98 % of control

CCC[CH2][Sn]([CH2]CCC)([O]S(C)(=O)=O)[O]S(C)(=O)=O
inactive: dose: 1.56 mg/kg/injection, schedule: Q01DX009 (ip), vehicle: Klucel (hydroxypropylcellulose) (HPC) 105 % of control | dose: 3.12 mg/kg/injection, schedule: Q01DX009 (ip), vehicle: Klucel (hydroxypropylcellulose) (HPC) 105 % of control

O=C1c2cccc3cccc(c23)C(=O)N1CCc1ccccn1
inactive: dose: 100.0 mg/kg/injection, schedule: Q01DX009 (ip), vehicle: Klucel (hydroxypropylcellulose) (HPC) 91 % of control | dose: 200.0 mg/kg/injection, schedule: Q01DX009 (ip), vehicle: Klucel (hydroxypropylcellulose) (HPC) 92 % of control

O=C(Nc1ccc(C2=NCCN2)cc1)c1ccc2cc(C(=O)Nc3ccc(C4=NCCN4)cc3)ccc2c1
inactive: dose: 15.0 mg/kg/injection, schedule: Q01DX Z (ip), vehicle: carboxymethylcellulose (CMC) 123 % of control | dose: 120.0 mg/kg/injection, schedule: Q01DX Z (ip), vehicle: carboxymethylcellulose (CMC) 120 % of control

COC(=O)C(CC(C)C)NC(=O)C(N)Cc1ccc(OCc2ccccc2)cc1 (centres undefined) (H-Tyr(Bn)-Leu-OMe; configuration not given here)
inactive: dose: 6.25 mg/kg/injection, schedule: Q01DX009 (ip), vehicle: saline with Tween-80 111 % of control | dose: 12.5 mg/kg/injection, schedule: Q01DX009 (ip), vehicle: saline with Tween-80 111 % of control | dose: 25.0 mg/kg/injection, schedule: Q01DX009 (ip), vehicle: saline with Tween-80 106 % of control and 90 % of control | dose: 25.0 mg/kg/injection, schedule: Q04DX003 (ip), vehicle: saline with Tween-80 98 % of control | dose: 50.0 mg/kg/injection, schedule: Q04DX003 (ip), vehicle: saline with Tween-80 104 % of control | [4] 96 % of control and 102 % of control

N/N=C1\c2ccccc2-c2cc([N+](=O)[O-])ccc21
inactive: dose: 100.0 mg/kg/injection, schedule: Q01DX001 (ip), vehicle: carboxymethylcellulose (CMC) 104 % of control | dose: 200.0 mg/kg/injection, schedule: Q01DX001 (ip), vehicle: carboxymethylcellulose (CMC) 95 % of control

CC(=O)c1ccc(N2C(=O)C=CC2=O)cc1
inactive: dose: 25.0 mg/kg/injection, schedule: Q04DX003 (ip), vehicle: Klucel (hydroxypropylcellulose) (HPC) 114 % of control | dose: 50.0 mg/kg/injection, schedule: Q04DX003 (ip), vehicle: Klucel (hydroxypropylcellulose) (HPC) 115 % of control

O=C1CNC(=O)N1CCCl
inactive: [2] 100 % of control | [5] 100 % of control | [3] 103 % of control | dose: 200.0 mg/kg/injection, schedule: Q01DX009 (ip), vehicle: saline 104 % of control | dose: 400.0 mg/kg/injection, schedule: Q01DX009 (ip), vehicle: saline 113 % of control | dose: 400.0 mg/kg/injection, schedule: Q04DX003 (ip), vehicle: saline 94 % of control

CCCCCCCCCCCCCCCSc1ccc2ccccc2c1
inactive: dose: 100.0 mg/kg/injection, schedule: Q04DX003 (ip), vehicle: Klucel (hydroxypropylcellulose) (HPC) 92 % of control | dose: 200.0 mg/kg/injection, schedule: Q04DX003 (ip), vehicle: Klucel (hydroxypropylcellulose) (HPC) 91 % of control | dose: 400.0 mg/kg/injection, schedule: Q04DX003 (ip), vehicle: Klucel (hydroxypropylcellulose) (HPC) 92 % of control

COc1ccc(NC(=O)Nc2cccc(C(F)(F)F)c2)c(OC)c1
inactive: dose: 100.0 mg/kg/injection, schedule: Q01DX009 (ip), vehicle: gum acacia 102 % of control | dose: 200.0 mg/kg/injection, schedule: Q01DX009 (ip), vehicle: gum acacia 98 % of control | dose: 400.0 mg/kg/injection, schedule: Q01DX009 (ip), vehicle: gum acacia 101 % of control

CC(=O)C1=C(c2ccc([N+](=O)[O-])cc2)NC(=O)NC1c1ccco1 (centres undefined)
inactive: [4] 98 % of control | dose: 200.0 mg/kg/injection, schedule: Q04DX003 (ip), vehicle: saline with Tween-80 93 % of control | dose: 400.0 mg/kg/injection, schedule: Q04DX003 (ip), vehicle: saline with Tween-80 100 % of control

O=C(O)CC1CC=CCC1CC(=O)O (centres undefined)
inactive: dose: 100.0 mg/kg/injection, schedule: Q01DX009 (ip), vehicle: saline sonified 95 % of control | dose: 200.0 mg/kg/injection, schedule: Q01DX009 (ip), vehicle: saline sonified 101 % of control | dose: 400.0 mg/kg/injection, schedule: Q01DX009 (ip), vehicle: saline sonified 104 % of control

CC(=O)[O][Hg][c]1c(N)c(C)cc(C)c1F
inactive: dose: 2.5 mg/kg/injection, schedule: Q01DX009 (ip), vehicle: saline 91 % of control | dose: 5.0 mg/kg/injection, schedule: Q01DX009 (ip), vehicle: saline 95 % of control | dose: 6.25 mg/kg/injection, schedule: Q04DX003 (ip), vehicle: saline 101 % of control | dose: 10.0 mg/kg/injection, schedule: Q01DX009 (ip), vehicle: saline 98 % of control | dose: 12.5 mg/kg/injection, schedule: Q04DX003 (ip), vehicle: saline 91 % of control | [1] 94 % of control and 100 % of control | [3] 95 % of control

O=[N+]([O-])c1ccc(\C=C/C=C/C=C/C2(CCl)OCCO2)cc1
inactive: dose: 100.0 mg/kg/injection, schedule: Q01DX001 (ip), vehicle: saline with Tween-80 91 % of control | dose: 200.0 mg/kg/injection, schedule: Q01DX001 (ip), vehicle: saline with Tween-80 87 % of control

O=c1ccn(Cc2ccccc2)c(=S)[nH]1
inactive: dose: 50.0 mg/kg/injection, schedule: Q01DX001 (ip), vehicle: saline 97 % of control | dose: 100.0 mg/kg/injection, schedule: Q01DX001 (ip), vehicle: saline 94 % of control | dose: 200.0 mg/kg/injection, schedule: Q01DX001 (ip), vehicle: saline 97 % of control | dose: 400.0 mg/kg/injection, schedule: Q01DX001 (ip), vehicle: saline 100 % of control

CC(CCN1CCOCC1)(CNC1=NCCN1)c1cccc2ccccc12 (centres undefined)
inactive: dose: 5.0 mg/kg/injection, schedule: Q01DX009 (ip), vehicle: saline with Tween-80 100 % of control | dose: 10.0 mg/kg/injection, schedule: Q01DX009 (ip), vehicle: saline with Tween-80 96 % of control | dose: 20.0 mg/kg/injection, schedule: Q01DX009 (ip), vehicle: saline with Tween-80 103 % of control

Cc1ccc(C)c(NC(=O)C2CCCCC2C(=O)O)c1 (centres undefined)
inactive: dose: 100.0 mg/kg/injection, schedule: Q04DX002 (ip), vehicle: Klucel (hydroxypropylcellulose) (HPC) 118 % of control | dose: 200.0 mg/kg/injection, schedule: Q04DX002 (ip), vehicle: Klucel (hydroxypropylcellulose) (HPC) 96 % of control | dose: 400.0 mg/kg/injection, schedule: Q04DX002 (ip), vehicle: Klucel (hydroxypropylcellulose) (HPC) 103 % of control

C=CC[Se]c1ncnc2c1ncn2C1OC(CO)C(O)C1O (centres undefined)
inactive: dose: 12.5 mg/kg/injection, schedule: Q01DX005 (ip), vehicle: saline 100 % of control | dose: 25.0 mg/kg/injection, schedule: Q01DX005 (ip), vehicle: saline 110 % of control | dose: 50.0 mg/kg/injection, schedule: Q01DX005 (ip), vehicle: saline 104 % of control | dose: 50.0 mg/kg/injection, schedule: Q01DX009 (ip), vehicle: saline 90 % of control | [5] 88 % of control

From PubChem BioAssay AID248 (DTP/NCI, 2004)
